# Test results published in EP3492483A1, “COMPOUNDS AND METHODS FOR TREATING BACTERIAL INFECTIONS” (The Washington University, priority 2009, dated 2011).
# Entries after “also recorded” stand apart in the source; their conditions may differ.
# Assays:
# FimH [1] = molecular target: T1, FimH (Escherichia coli, UniProt P08191); conditions: previously reported, SPR; cited from earlier work
# FimH [2] = molecular target: T1, FimH
# Source text: In order to more accurately determine the relative contributions of both binding affinity to FimH versus other compound properties to the potency seen in the cellular HA titer assay, a high-throughput fluorescence polarization (FP) (or anisotropy) competitive binding assay was developed using a fluorescent-labeled mannoside ligand shown in Scheme 4.
# A fluorescent polarization assay was developed and miniaturized to monitor the direct binding of a synthesized fluorescently labeled butyl mannose derivative to the FimH receptor as well as competitive displacement by other synthetic mannosides. This fluorescent polarization assay provides a rapid method for monitoring improvements to receptor affinity during the synthetic process, as well as providing Kd binding affinity measurements.
# UTI89 [3] = experiment: IBC enumeration by LacZ staining of whole bladders; assay type: in vivo, mice
# Procedure: (§1) After invasion, UPEC are able to rapidly replicate to form IBCs, thus dramatically expanding in numbers. After maturation of the IBC, bacteria are able to disperse from the biomass and spread to neighboring cells to expand the buildup in bacterial numbers via next generation IBC. The ability of mannosides to block IBC formation was evaluated based on LacZ staining of whole mount bladders, a protocol developed to enumerate IBCs. Whole bladder titers were also determined by quantifying colony forming units (CFUs) at 6 hours post-infection and later time points as test compounds were further developed.
# To test the efficacy of the mannosides in vivo, UTI89 expressing type 1 pili were pre-incubated with mannosides, inoculated into mice and IBCs were quantitated at 6 hours post-infection (hpi).
# Enumeration of bladder IBCs. For bacterial pretreatment experiments, mannoside was added to the bacterial suspension and incubated for 20 min. For animal pretreatment experiments, mannoside ZFH-2056 was administered either IP (5 mg/kg) or orally (100 mg/kg) 30 min prior to inoculation with UTI89. To accurately count the number of IBCs, mice were sacrificed 6 hpi and bladders were aseptically removed, bisected, splayed on silicone plates and fixed in 2% paraformaldehyde (v/v). IBCs, readily discernable as punctate violet spots, were quantified by LacZ staining of whole bladders.
# UTI89 [4] = experiment: Bladder bacterial titer (CFU), mouse UTI model, UTI89; assay type: in vivo, mice; conditions: for total bacterial CFUs: 6 hpi
# Procedure: as §1
# Animal infections. Bacteria were grown under type 1 pili-inducing conditions (2x24 h at 37°C statically in LB). The bacteria were harvested and resuspended to an OD600 of 0.5 in PBS. Eight-week-old C3H/HeN (Harlan) female mice were anesthetized by inhalation of isoflurane and infected via transurethral catheterization with 50 µl of the bacterial suspension, resulting in 1-2 x 10^7 inoculum. At 6 hpi, mice were sacrificed by cervical dislocation under anesthesia and the bladders were immediately harvested and processed as described below. All animal studies using mice were approved by the Animal Studies Committee of Washington University (Animal Protocol Number 20100002).
# Bladder tissue bacterial titer determination. Mannoside ZFH-2056 was administered either IP (5 mg/kg) or orally (100 mg/kg) 30 min prior to inoculation with UTI89. To enumerate the bacteria present, mice were sacrificed at 6 hpi and bladders were aseptically removed and homogenized in 1 ml PBS, serially diluted and plated onto LB agar plates. CFU was enumerated after 16 h of growth at 37 °C.
# UTI89 biofilm [5] = experiment: Biofilm formation inhibition assay (PVC, crystal violet); assay type: cell-based, UPEC; conditions: PVC, LB, room temperature; read-out: IC50 of mannoside on UTI89 biofilm formation
# Procedure: First, the ability of mannoside derivatives to prevent UPEC type 1 dependent biofilm formation in the published Kolter assay was measured as optimized for the prototypic UTI89 strain used in these assays.
# (§3) These mannosides were evaluated first for their ability to inhibit biofilm formation or disrupt preformed biofilms. Biofilm inhibition was evaluated on FimH-dependent UTI89 biofilms grown on PVC in LB at room temperature. […] Biofilm disruption was evaluated by the addition of mannosides to preformed 24 h biofilms followed by growth for an additional 16 h.
# UTI89 biofilm was grown in LB +/- mannoside for 24 h at 22°C in PVC plates and quantitated using crystal violet.
# Biofilm assay. UTI89 was grown in LB broth in wells of PVC microtiter plates at 23°C in the presence of individual mannosides at varying concentrations. After 48 h of growth, wells were rinsed with water and stained with crystal violet for quantification as described. For biofilm disruption activity in PVC plates, UTI89 was grown in LB broth in wells of PVC microtiter plates at 23°C. After 24 h of growth, mannoside was added and biofilms were grown for an additional 16h. Wells were then rinsed, stained with crystal violet and quantified.
# [6] = Urine pharmacokinetic analysis of mannoside (LC-MS); assay type: in vivo, mice
# Procedure: Pharamacokinetic analysis. […] An equal volume of 10 µM internal standard (ZFH-2050) was added to the urine.
# [7] = Solubility (qualitative statements); conditions: relative to di-ester 15a
# UTI89 [8] = experiment: Gentamicin protection assay of infected mouse bladders; assay type: in vivo, mice; conditions: 6 hpi, IP (5 mg/kg) pretreatment
# Source text: Based on the extensive elucidation of the UPEC pathogenic cascade, critical nodes in pathogenesis that mannosides would target and thereby have powerful and potent therapeutic ramifications were identified. The first step in the UPEC pathway involves FimH-mediated colonization of the bladder epithelium via the recognition of mannose receptors. Bacterial invasion into superficial bladder umbrella cells can then ensue. […] To test this, a well-established gentamicin protection assay that allows the determination of the luminally bound fraction versus the intracellular fraction was utilized (Fig 10). […] This may be due to contamination from bacteria in the urine or bacteria that are non-specifically associated with the epithelium. In any case, blocking invasion blocks the ability of the bacteria to rapidly expand in numbers. This is due to the ability of the mannosides to block the IBC mechanism.
# The efficacy of in vivo mannoside treatment was evaluated after dosing animals with mannoside either IP or PO 30 min prior to infecting with UTI89. At 6 hpi the bladders were removed and total bacterial CFUs were quantitated. […] Gentamicin efficiently kills extracellular UPEC but is unable to penetrate tissue and thus intracellular bacteria survive gentamicin treatment18. […] In bladders from untreated mice, 10^3 - 10^4 CFUs remained after gentamicin treatment.
# Gentamicin protection assay. […] The bladders were then bisected twice and washed three times in 500 µl of PBS each. The wash fractions were pooled, lightly spun at 500 rpm for 5 min to pellet exfoliated bladder cells, serially diluted, and plated onto LB agar to obtain the luminal fraction. The bladders were treated with 100 µg of gentamicin/ml for 90 min at 37°C. After treatment, the bladders were washed twice with PBS to eliminate residual gentamicin, homogenized in 1 ml of PBS, serially diluted, and plated onto LB agar to enumberate the CFUs in the intracellular fraction.
# PBC-1 [9] = experiment: Growth curve with TMP-SMZ (MIC); assay type: cell-based, UPEC
# UTI89 [10] = experiment: Bladder bacterial titer (CFU), mouse UTI model, UTI89; assay type: in vivo, mice; conditions: for bacterial titers upon boosting: pretreatment plus 2 treatments every 8h
# PBC-1 [11] = experiment: Bladder bacterial titer (CFU), mouse UTI model, TMP-SMZ resistant strain; assay type: in vivo, mice
# Procedure: (§2) Mice were either untreated or IP treated with mannoside ZFH-2056 30 min prior to inoculation with bacteria. […] Not only do the bacteria escape the immune system in their intracellular niche, they are also able to escape exposure to effective antibiotics.
# FimH [12] = molecular target: T2, FimH (Escherichia coli, UniProt Q1R2J4); experiment: cell-based; parameters: species or system UPEC
# T2 construct: endogenous in cells; host or cells: type 1 piliated UPEC bacteria
# Procedure: In some embodiments, activity of the compound is measured using hemmagglutination titer of guinea pig red blood cells. Hemagglutination of guinea pig red blood cells by type1 piliated UPEC is dependent upon FimH mannose binding ability and serial dilutions allow a quantitative analysis.
# Biological activity against FimH was evaluated using a guinea pig red blood cell-based hemagglutination (HA) assay (ref) in which the concentration of the mannoside on reducing agglutination by 50% was used as the primary endpoint (50% HA titer).
# Hemagglutination of guinea pig red blood cells by type1 piliated UPEC is dependent upon FimH mannose binding ability.
# UTI89 biofilm [13] = experiment: Disruption of preformed biofilm; assay type: cell-based, UPEC; conditions: for IC50: another 24h
# Procedure: as §3
# For biofilm disruption activity in PVC plates, UTI89 was grown in LB broth in wells of PVC microtiter plates at 23°C. After 24 h of growth, mannoside was added and biofilms were grown for an additional 16h. Wells were then rinsed, stained with crystal violet and quantified. For biofilm disruption activity on PVC coverslips, UTI89 was grown in LB broth in 50 mL conicals containing PBC coverslips at 23°C. […] Coverslips were then rinsed, fixed with 2% paraformaldehyde (v/v), stained with SYTO9 (1:1000 in PBS; Molecular Probes) and observed with a Zeiss LSM410 confocal laser scanning microscope under a 63X objective.
# UTI89 was grown in LB in PVC plates and allowed to form biofilm at RT for 24 or 48h. […] Biofilm was then allowed to grow for another 24h at RT. Biofilm formation was then quantitated using the standard crystal violet assay.
# [14] = 3 days of 54 µg/ml TMP and 270 µg/ml SMZ in drinking water
# Procedure: as §2
# Antibiotic treatment. […] Water was changed daily for 3 days prior to inoculation with UTI89.
smiles,measurement,setting,value
"CCCCO[C@H]1O[C@H](CO)[C@@H](O)[C@H](O)[C@@H]1O [Butylαman, α-D-butylmannoside, reference compound]",Kd,FimH [1],151 nM
same,EC50,FimH [2],245 nM
"CNC(=O)c1cc(C(=O)NC)cc(-c2ccc(O[C@H]3O[C@H](CO)[C@@H](O)[C@H](O)[C@@H]3O)cc2)c1 [Compound 50, N1,N3-dimethyl-5-[4-[(2R,3S,4S,5S,6R)-3,4,5-trihydroxy-6-(hydroxymethyl)tetrahydropyran-2-yl]oxyphenyl]benzene-1,3-dicarboxamide]",IBCs,"UTI89 [3]; 6 hpi, UTI89 pre-incubated with 10 µM",most significant reduction in IBCs
same,IBC counts in the bladder,"UTI89 [3]; 10^6 inoculum, 6h",no IBCs observed
same,IBC quantification,"UTI89 [3]; IP (5 mg/kg) 30 min prior to inoculation, 6 hpi",significant reduction in IBCs
same,IBC quantification,"UTI89 [3]; oral (100 mg/kg) 30 min prior to inoculation, 6 hpi",significant reduction in IBCs
same,bladder titers,"UTI89 [4]; 5mg/kg 30 min prior, 10^7 UTI89, 6 hpi",significantly inhibited bacterial infection
same,total bacterial CFUs,"UTI89 [4]; IP (5 mg/kg) 30 min prior to inoculation, listed as ZFH-2056, 5 mg/kg",significant drop in bacterial counts; also recorded: significant drop in bacterial load
same,total bacterial CFUs,UTI89 [4]; oral (100 mg/kg) 30 min prior to inoculation,significant drop in bacterial counts
same,IC50,UTI89 biofilm [5],740 nM
same,lower initial urine concentration versus IP,[6]; 100 mg/kg PO,10 fold
same,higher urine levels versus IP,"[6]; 100 mg/kg PO, 8 hours post-dosing",10 fold
same,concentration in the urine,"[6]; IP 5 mg/kg and 10 mg/kg, 30 min after treatment",~5 mM
same,time by which mostly gone (eliminated in the urine),"[6]; IP dosing, post injection",6 to 8 h
same,drug cleared to the urine intact,"[6]; mouse, in vivo",> 95%
same,concentration at 8 h,"[6]; mouse, urine, IP, eight hours after dosing, read-out: level in the urine",≤ 740 nM
same,solubility,[7],much improved solubility
same,luminal bacteria,UTI89 [8],significantly reduced
same,intracellular bacteria (CFUs after gentamicin),UTI89 [8]; listed as ZFH-2056,eliminated all CFUs; also recorded: significantly reduced
same,effect on efficacy of TMP-SMZ killing,PBC-1 [9]; 100 µM mannoside,not found to increase the efficacy of TMP-SMZ killing
same,bladder titers,"UTI89 [10]; 5mg/kg 30 min prior, 10^7 UTI89, 24 hpi",significantly reduced bacterial titers
same,bladder titers,"UTI89 [10]; 50mg/kg 30 min prior, 10^7 UTI89, 6 hpi",significantly inhibited bacterial infection
same,bladder titers,"UTI89 [10]; 50mg/kg 30 min prior, 10^7 UTI89, 24 hpi",significantly reduced bacterial titers
same,2 week titers,"UTI89 [10]; 10^6 inoculum, single dose 5mg/kg 30 min prior",significant decrease in bacterial load
same,bacterial titers,"UTI89 [10]; 10^6 inoculum, treated vs untreated mice",significant decrease
same,"bacterial titers, post-infection treatment","UTI89 [10]; 24hpi, 5mg/kg IP 1h post-infection plus 2 treatments every 8h",no efficacy observed
same,bacterial titers upon boosting,"UTI89 [10]; 24hpi, 10^6 inoculum",not observed
same,bacterial titers upon boosting,"UTI89 [10]; 24hpi, 10^7 inoculum",further efficacy
same,bacterial titers,"UTI89 [10]; 24hpi, single IP pretreatment 5mg/kg, 10^7 and 10^6 inoculum",significant drop in bacterial titers
same,efficacy against TMP-SMZ resistant strains,PBC-1 [11]; Fig. 29,increased efficacy
same,bacterial load in the bladder,"PBC-1 [11]; IP 30 min prior to inoculation, 6 hpi",significant drop in bacterial load
same,EC50,FimH [2],87 nM
same,EC50,FimH [12],370 nM
same,difference in cell potency vs. binding (drop in cell activity relative to binding),FimH [12]; HA titer vs FP EC50,4 fold
same,inhibition of FimH-dependent hemagglutination,FimH [12]; in words,potent inhibitors
same,EC90,FimH [12]; read-out: HA 50% titer EC90,370 nM
same,biofilm structure by confocal microscopy,"UTI89 biofilm [13]; 0.3 µM, 24 h biofilm plus 16 h",lacked continuity
same,IC50,UTI89 biofilm [13]; mannoside added at 24h,~6 µM
same,IC50,UTI89 biofilm [13]; mannoside added at 48h,~25 µM
"COc1cc(Cc2cnc(N)nc2N)cc(OC)c1OC [TMP, Trimethoprim]",MIC,PBC-1 [9],256 µg/mL
same,concentration in urine,[14],9.95 ± 4.36 mg/mL
